ChEMBL document CHEMBL1152587, “Application of the McMurry coupling reaction in the synthesis of tri- and tetra-arylethylene analogues as potential cancer chemotherapeutic agents” (Bioorg Med Chem, 2009)

Tests used:
[1] = Inhibition of bovine tubulin polymerization after 20 mins by turbidimetrically
DU-145 = test: Anticancer activity against human DU145 cells after 48 hrs by SRB assay; conditions: DU-145, 48 h

Row | IC50 [1] [nM] | GI50 (DU-145) [nM] | SMILES
1 | > 40000 |  | CC/C(=C(\c1ccccc1)c1ccc(OCCN(C)C)cc1)c1ccccc1 [TAMOXIFEN]
2 |  | 2 | COc1ccc(/C=C\c2cc(OC)c(OC)c(OC)c2)cc1O [COMBRETASTATIN A4]
